Values quoted from earlier work in patent US11938119B2, “Cannabis production systems and methods” ([…], LLC, priority 2017, dated 2024).

Settings: stated "in embodiments"; no solvent system or method printed

Structure (SMILES) | partition coefficient
C=C(C)[C@@H]1CCC(C)=C[C@H]1c1c(O)cc(CCCCC)cc1O [cannabidiol] | 5.79
CCCCCc1cc(O)c2c(c1)OC(C)(C)[C@@H]1CCC(C)=C[C@@H]21 [tetrahydrocannabinol] | 6.99
